Experimental data taken from patent US9657009B2, “Heteroaryl substituted pyridyl compounds useful as kinase modulators” (BRISTOL-MYERS SQUIBB COMPANY, priority 2012, dated 2017).

Target: IRAK4 (Homo sapiens (Human), UniProt Q9NWZ3)
Assay: IRAK4 Inhibition Assay
Format: biochemical
Conditions: ATP 500 μM; IRAK4 0.6 nM; 60 min at room temperature; read-out: IRAK4 IC50
Protocol: IRAK4 Inhibition Assay The assays were performed in U-bottom 384-well plates. […] The reaction was initiated by the combination of IRAK4 with substrates and test compounds. The reaction mixture was incubated at room temperature for 60 min. and terminated by adding 45 μL of 35 mM EDTA to each sample.

Chain of IRAK4 (Q9NWZ3 whole entry, species assumed): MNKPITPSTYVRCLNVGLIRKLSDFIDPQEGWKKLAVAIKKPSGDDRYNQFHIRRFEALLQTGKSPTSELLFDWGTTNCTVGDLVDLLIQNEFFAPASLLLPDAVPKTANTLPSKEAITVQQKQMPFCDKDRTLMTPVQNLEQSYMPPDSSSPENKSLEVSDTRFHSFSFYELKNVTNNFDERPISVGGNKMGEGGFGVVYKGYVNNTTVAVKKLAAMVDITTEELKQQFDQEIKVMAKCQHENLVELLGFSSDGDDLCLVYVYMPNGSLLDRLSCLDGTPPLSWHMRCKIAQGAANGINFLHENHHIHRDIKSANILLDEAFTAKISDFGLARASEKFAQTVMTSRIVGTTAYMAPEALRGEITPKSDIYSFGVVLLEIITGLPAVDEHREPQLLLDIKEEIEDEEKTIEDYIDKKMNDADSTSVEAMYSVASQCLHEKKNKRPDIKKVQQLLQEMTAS

Row | Compound | IC50 [nM]
1 | CC(C)Nc1cc(Nc2ncc(F)cc2F)ncc1C(=O)NC[C@@H](F)C(C)(C)O [Example 80] | 7
2 | CC(=O)N[C@H]1CC[C@H](NC(=O)c2cnc(Nc3ccc(C#N)cn3)cc2NC(C)C)CC1 [Example 9, N-(trans-4-acetamidocyclohexyl)-6-((5-cyano-2-pyridinyl)amino)-4-(isopropylamino)nicotinamide] | 7.4
3 | CC(C)Nc1cc(Nc2ncc(C#N)cc2Cl)ncc1C(=O)NC[C@H](F)C(C)(C)O [Example 156] | 8.6
4 | CC(C)Nc1cc(Nc2ccc(C#N)cn2)ncc1C(=O)N[C@H]1CC[C@H](C(=O)NC2CC2)CC1 [Example 6, 6-((5-cyanopyridin-2-yl)amino)-N-((1R,4R)-4-(cyclopropylcarbamoyl)cyclohexyl)-4-(isopropylamino)nicotinamide] | 5.5
5 | CNC(=O)[C@H]1CC[C@H](NC(=O)c2cnc(Nc3ncc(C#N)cc3F)cc2NC(C)C)CC1 [Example 18, 6-((5-cyano-3-fluoropyridin-2-yl)amino)-4-(isopropylamino)-N-((1r,4r)-4-(methylcarbamoyl)cyclohexyl)nicotinamide] | 3.4
6 | CC(C)Nc1cc(Nc2ncc(Cl)cc2F)ncc1C(=O)NC[C@@H](F)C(C)(C)O [Example 123] | 3.5
7 | CC(C)CNc1cc(Nc2ncc(C#N)cc2Cl)ncc1C(=O)NC[C@@H](F)C(C)(C)O [Example 155] | 4.3
8 | CC(C)(O)[C@H](F)CNC(=O)c1cnc(Nc2ncc(C#N)cc2F)cc1Nc1cccc(O)c1 [Example 125] | 3.6
9 | Cc1nc(Nc2cc(NC(C)C)c(C(=O)NC[C@@H](F)C(C)(C)O)cn2)ccc1C#N [Example 63] | 3.8
10 | C[C@@H](CO)Nc1cc(Nc2ncc(C#N)cc2Cl)ncc1C(=O)NC[C@@H](F)C(C)(C)O [Example 50] | 9.4
11 | CC(C)Nc1cc(Nc2ccnc(NC3CC3)n2)ncc1C(=O)NC[C@@H](F)C(C)(C)O [Example 24, 6-((2-(cyclopropylamino)-4-pyrimidinyl)amino)-N-((2R)-2-fluoro-3-hydroxy-3-methylbutyl)-4-(isopropylamino)nicotinamide] | 11
12 | CC(C)(O)c1cnc(Nc2cc(Nc3ncc(C#N)cc3Cl)ncc2C(=O)NC[C@@H](F)C(C)(C)O)s1 [Example 75] | 1.4
13 | Cn1nnnc1-c1cccc(Nc2cc(Nc3ncc(C#N)cc3Cl)ncc2C(=O)NC[C@@H](F)C(C)(C)O)c1 [Example 146] | 8.5
14 | CC(C)Nc1cc(Nc2ccc(C#N)cn2)ncc1C(=O)NC[C@@H](F)C(C)(C)O [Example 2, 6-((5-cyano-2-pyridinyl)amino)-N-((2R)-2-fluoro-3-hydroxy-3-methylbutyl)-4-(isopropylamino)nicotinamide] | 2
15 | CC(C)(O)[C@H](F)CNC(=O)c1cnc(Nc2ncc(C#N)cc2Cl)cc1NCC(F)(F)F [Example 65] | 2.9
16 | CC(C)Nc1cc(Nc2ccnc(N)n2)ncc1C(=O)NC[C@@H](F)C(C)(C)O [Example 131] | 10.6
17 | CC(C)Nc1cc(Nc2ncc(C#N)cc2F)ncc1C(=O)NCCCOC(C)(C)C [Example 127] | 15.3
18 | CC(C)Nc1cc(Nc2ncc(C#N)cc2F)ncc1C(=O)N[C@H]1CC[C@H](C(=O)NC2CC2)CC1 [Example 118] | 4.6
19 | CC(C)(O)[C@H](F)CNC(=O)c1cnc(Nc2ncc(C#N)cn2)cc1NC1CCC(F)C1 (stereo partly drawn) [Example 86] | 4.8
20 | CC(C)(O)[C@H](F)CNC(=O)c1cnc(Nc2ncc(Cl)cc2F)cc1NC1CC1 [Example 124] | 5.7
21 | C[C@H](CO)Nc1cc(Nc2ncc(F)cc2F)ncc1C(=O)NC[C@@H](F)C(C)(C)O [Example 100] | 17.4
22 | CC(C)(O)[C@H](F)CNC(=O)c1cnc(Nc2ncc(C#N)cc2F)cc1Nc1cccc(CO)c1 [Example 122] | 3.3
23 | CCNc1cc(Nc2ncc(C#N)cc2F)ncc1C(=O)NC[C@@H](F)C(C)(C)O [Example 66] | 3.8
24 | CC(=O)N[C@H]1CC[C@H](NC(=O)c2cnc(Nc3ncc(C#N)cc3Cl)cc2NC2CCOCC2)CC1 [Example 77] | 7.8
